From paper PMC4729137, “Functional analysis of androgen receptor mutations that confer anti-androgen resistance identified in circulating cell-free DNA from prostate cancer patients” (Genome Biology, 2016) come the findings set out here.

The target of one test is T1, H875Y-AR (Homo sapiens, UniProt P10275, H875Y).
T1 sequence (P10275 1-920 H875Y): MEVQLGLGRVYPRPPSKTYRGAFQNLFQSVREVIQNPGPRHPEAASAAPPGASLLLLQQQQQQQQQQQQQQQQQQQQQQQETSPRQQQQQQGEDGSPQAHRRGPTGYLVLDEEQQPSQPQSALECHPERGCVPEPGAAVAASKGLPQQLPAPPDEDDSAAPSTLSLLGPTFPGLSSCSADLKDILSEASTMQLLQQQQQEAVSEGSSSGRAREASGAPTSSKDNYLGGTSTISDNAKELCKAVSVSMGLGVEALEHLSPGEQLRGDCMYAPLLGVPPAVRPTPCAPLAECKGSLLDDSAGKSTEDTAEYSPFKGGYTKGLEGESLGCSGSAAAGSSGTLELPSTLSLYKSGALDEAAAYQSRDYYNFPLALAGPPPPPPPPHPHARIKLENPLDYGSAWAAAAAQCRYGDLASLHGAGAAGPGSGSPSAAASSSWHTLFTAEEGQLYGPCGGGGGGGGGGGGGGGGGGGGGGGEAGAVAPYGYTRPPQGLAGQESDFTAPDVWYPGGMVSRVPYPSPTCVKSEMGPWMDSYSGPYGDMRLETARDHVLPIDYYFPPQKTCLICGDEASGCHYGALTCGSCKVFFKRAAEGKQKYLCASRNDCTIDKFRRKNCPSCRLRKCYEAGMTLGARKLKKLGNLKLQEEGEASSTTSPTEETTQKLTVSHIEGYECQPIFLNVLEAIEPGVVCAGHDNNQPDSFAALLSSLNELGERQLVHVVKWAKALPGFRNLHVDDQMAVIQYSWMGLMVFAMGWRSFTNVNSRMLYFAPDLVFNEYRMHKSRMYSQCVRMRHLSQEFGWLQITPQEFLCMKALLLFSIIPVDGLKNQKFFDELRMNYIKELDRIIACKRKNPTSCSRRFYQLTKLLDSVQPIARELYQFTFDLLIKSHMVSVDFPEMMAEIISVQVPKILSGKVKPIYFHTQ
The class given is cell-based. To be noted: AR mutant H875Y; transfected PC3 cells; 0.1 nM R1881; drug 0 to 50 μM. From the text: (§1) Full-length human AR (WT-AR) was encoded on a pcDNA3.1 expression plasmid (Life technologies). The LBD point mutations (single and multiple) were generated using the QuikChange II Site-Directed Mutagenesis Kit (Agilent Technologies) as per manufacturer’s instructions using WT-AR as the template. The mutagenic oligonucleotide primers were designed individually with the desired mutation in the middle of the primer with approximately 10 to 15 bases of correct sequence on both sides.
(§2) PC3 cells were seeded and transfected as described above. […] A non-stimulated/no R1881 control was used. After 24 h, cells were lysed and AR-dependent luciferase activity was quantified. Each concentration was assayed in quadruplicate n = 4, with a biological replicate of n = 3. Results were averaged and normalized by expressing them as a percentage of WT AR activity.

A further test has as its target T2, M896T-AR (Homo sapiens, UniProt P10275, M896T).
T2 sequence (P10275 1-920 M896T): T1 sequence (P10275 1-920 H875Y) with Y875H, M896T
Type of test: cell-based. To be noted: AR mutant M896T; transfected PC3 cells; 0.1 nM R1881; drug 0 to 50 μM.
From the text: as §1, §2

Changes are numbered by the printed parent chain.

On to `CC(C)(O)C(=O)Nc1ccc([N+](=O)[O-])c(C(F)(F)F)c1` [Hydroxyflutamide, hydroxyflutamide], for which the “Agonist response to treatment” value at H875Y-AR is given as “Yes”; on M896T-AR it was “Partial”.
